The source of these data is patent US12582604B2, “Stable solid dispersion of a B-RAF kinase dimer inhibitor, methods of preparation, and uses therefor” (BEIGENE, LTD., priority 2019, dated 2026).

Values after ≈ are worked out from the molar mass of the structure shown. “Also recorded” adds a separate entry of the source. Bounds are passed on as bounds.

A short description of data set [1]: Solubility measurement (shaking 200 rpm at 25° C., HPLC). Format: physicochemical.
A short description of data set [2]: Hygroscopicity by dynamic vapor sorption (DVS). Format: physicochemical. The conditions noted are these: for Hygroscopicity (in words): DVS, 80% RH.
Data set [3] can be described thus: Long-term and accelerated stability studies (impurities, optical purity, XRPD, water content). The data set is classed as physicochemical. Conditions: for Total impurities T0: initial.
Data set [4] in a line: Pharmacokinetic comparison of Forms A-H in rats (Example 14). The data set is classed as in vivo. The conditions noted are these: rat, plasma.
The subject of data set [5] is RAF family of serine/threonine kinases. Conditions: especially against BRAF/CRAF dimers; cited from earlier work.
A short description of data set [6]: Long-term and accelerated stability studies (impurities, optical purity, XRPD, water content). The data set is classed as physicochemical. The procedure:
Chiral purity and polymorph results had no changes when stored at 25° C./60% RH for up to 24 months.

A short description of data set [7]: Pharmacokinetic comparison of Forms A-H in rats (Example 14). Format: in vivo. The source says:
Pharmacokinetic Comparison of Form a, B, C, D, E, F, G and H in Rats
(§1) Powder of Form A with particle sizes of D90=62.4 μm after micronization. The material content (purity) was not less than 98.0%.
Powder of Form B with particle sizes of D90=69.9 μm, D10=3.5 um, […] after micronization. The material content (purity) was not less than 98.0%.
Powders of Forms C, D, E, F, G and H with particle sizes of D90<600 μm after micronization. The material content (purity) was not less than 98.0%.
Rats, male and female, were used in this study.
An appropriate amount of each substance was weighted and was dispersed in 0.5% sodium carboxymethyl cellulose. A suspension was prepared at the desired concentration of Compound 1 for each substance. All the doses and concentrations of Compound 1 were calculated with freebase in this study.
(§2) The dosing solutions were freshly prepared prior to dose administration. The actual body weights and actual volume injected were recorded accordingly. The rats were fasted overnight and were allowed to intake food four hours after dosing. Each suspension was administrated orally to rats at a dose ranged from 0.5 to 5 mg/kg. Blood samples (˜1.0 mL) were collected at pre-dose and at different times up to 36 hours post-dosing via cephalic vein plexus. Whole blood was processed by centrifugation and plasma samples were collected and kept at freezer prior to analysis. Plasma samples were processed by protein precipitation. Concentrations of Compound 1 in the plasma samples were determined using a validated liquid chromatography-tandem mass spectrometry (LC-MS/MS) method. The plasma concentration-time data were analyzed using a non-compartmental model using Pharsight WinNonlin.

Data set [8] in a line: Pharmacokinetic comparison of Form A and Form F in dogs (Example 15). The conditions noted are these: for half-life: read-out: T½ (converted). Format: in vivo, Beagle dogs. The procedure: Pharmacokinetic Comparison of Form A and Form F in Dogs
as §1
Powder of Form F with particle sizes of D90<200 μm after micronization. The material content (purity) was not less than 98.0%.
Beagle dogs, male and female, were used in this study.
An appropriate amount of each substance was weighed and was disperse in 0.5% sodium carboxymethyl cellulose. A suspension was prepared at the desired concentration of Compound 1 for each substance. All the doses and concentrations of Compound 1 were calculated with freebase in this study.
as §2, with “dogs” for “rats”

Setting [9] is: 25° C./60% RH up to 24 months and 40° C./75% RH up to 6 months.
[10] abbreviates: both sexes, beagle, dog, plasma, 0.5 mg/kg, 0.5 mpk IV.
[11] abbreviates: both sexes, beagle, dog, plasma, 5 mg/kg, 5 mpk PO.
Setting [12] is: both sexes, iv, 1 mg/kg, 1 mpk IV.

On to `O=C1CCc2c(Oc3ccc4c(c3)[C@H]3[C@H](NC(=O)Nc5cc(F)c(F)cc5F)[C@H]3O4)ccnc2N1` [Compound 1, 1-((1S,1aS,6bS)-5-((7-oxo-5,6,7,8-tetrahydro-1,8-naphthyridin-4-yl)oxy)-1a,6b-dihydro-1H-cyclopropa[b]benzofuran-1-yl)-3-(2,4,5-trifluorophenyl)urea], for which the “Solubility (in words)” value in data set [1] (crystalline or neat amorphous form, water, 0.1 HCl, buffer solutions of different pH) is “poor solubility”. For the same compound, in data set [2] (80% relative humidity), the “Weight gain (water gain) by DVS” value is 4.96%. Moreover, in data set [2], the “Hygroscopicity (in words)” value is reported as “moderately hygroscopic”. In addition, the Chemical purity change entry in data set [3] (crystalline form, 25° C./60% RH up to 12 months) is recorded as “does not show any significant chemical purity change”. Moreover, the Optical purity change result in data set [3] (crystalline form, 25° C./60% RH up to 12 months and 40° C./75% RH up to 6 months) is on record as “no optical purity changes”. In addition, the bioavailability in data set [4] (po, 5 mpk, crystalline form, preliminary DMPK studies) is around 20%. In addition, the “Inhibitory activity (in words)” value in data set [5] is recorded as “potent inhibitory activity”.

In the case of `O=C1CCc2c(Oc3ccc4c(c3)[C@H]3[C@H](NC(=O)Nc5cc(F)c(F)cc5F)[C@H]3O4)ccnc2N1` [Form A, 1-((1S,1aS,6bS)-5-((7-oxo-5,6,7,8-tetrahydro-1,8-naphthyridin-4-yl)oxy)-1a,6b-dihydro-1H-cyclopropa[b]benzofuran-1-yl)-3-(2,4,5-trifluorophenyl)urea], the solubility was 20 µg/mL (≈ 41.5 µM) in data set [1] (0.1N HCl, simulated gastric fluid); 960 µg/mL (≈ 1990 µM) in data set [1] (5% HTAB, aqueous with cosolvent or surfactant or cyclodextrin); below 0.1 µg/mL in data set [1] (5% Pluronic F68, aqueous with cosolvent or surfactant or cyclodextrin); 1000 µg/mL (≈ 2070 µM) in data set [1] (5% SLS, aqueous with cosolvent or surfactant or cyclodextrin); 550 µg/mL (≈ 1140 µM) in data set [1] (20% hydroxypropyl-β-cyclodextrin (HP-β-CD), aqueous with cosolvent or surfactant or cyclodextrin); 550 µg/mL (≈ 1140 µM) in data set [1] (20% sulfobutyl ether-β-cyclodextrin (SBE-β-CD), aqueous with cosolvent or surfactant or cyclodextrin). Further, the solubility is below 0.1 µg/mL in data set [1] (n-heptane, organic solvent or mixture); 15 µg/mL (≈ 31.1 µM) in data set [1] (pH 1.2 buffer solution, pH 1.2, simulated gastric fluid); below 0.1 µg/mL in data set [1] (pH 4.5 buffer, pH 4.5, aqueous buffer); below 0.1 µg/mL in data set [1] (pH 6.8 buffer, pH 6.8, aqueous buffer); below 0.1 µg/mL in data set [1] (pH 7.4 buffer solution, pH 7.4, aqueous buffer); below 0.1 µg/mL in data set [1] (water). The solubility at 2 h was above 372000 µg/mL in data set [1] (DMA, organic solvent or mixture) and above 95400 µg/mL in data set [1] (DMSO, organic solvent or mixture). In data set [2], the “Hygroscopicity (in words)” value is recorded as “moderately hygroscopic”. Also, the “Crystalline form after DVS” value in data set [2] (after dynamic vapor sorption) was “changed to the Crystalline Form A*”. Moreover, the “Time at which solid form is still stable by XRPD” value in data set [6] (25° C./60% RH) and in data set [3] (40° C./75% RH) was at least 6 months in each case. The Optical purity change result in data set [6] (setting [9]) is recorded as “no optical purity changes”. In addition, the F in data set [7] (1 mpk IV (reference)) came out at 100%; in data set [8] (0.5 mpk IV (reference)) it was 100%; in data set [8] (5 mpk PO), 34%. Further, the AUC(0-t) in data set [7] (5 mpk PO, 5 mg/kg) came to 5716 ng·h/mL; in data set [8] (setting [10]) it was 6870 ng·h/mL; in data set [8] (setting [11]), 23400 ng·h/mL; in data set [4] (setting [12]), 5330 ng·h/mL. Besides, the half-life in data set [7] (both sexes, rat, plasma, po, 5 mg/kg, 5 mpk PO) was 2.94 h; in data set [8] (setting [10]), 11 h; in data set [8] (setting [11]), 11 h; in data set [4] (setting [12]), 4.2 h. Also, the clearance in data set [8] (setting [10]) worked out at 1.22 mL/min/kg; in data set [4] (both sexes, 1 mg/kg, 1 mpk IV) it was 3.15 mL/min/kg. The Vd in data set [8] (both sexes, beagle, dog, plasma, 0.5 mg/kg, 0.5 mpk IV, read-out: Vdss) is 0.97 L/kg; in data set [4] (both sexes, 1 mg/kg, 1 mpk IV, read-out: Vdss), 1.15 L/kg. The Cmax in data set [8] (setting [11]) was 1120 ng/mL. Moreover, the “Storage time without obvious decomposition” value in data set [3] is given as “over 12 months”. Moreover, the “Total impurities T0” value in data set [3] (25° C./60% RH study) and in data set [3] (40° C./75% RH study) was 1.0% each time. Moreover, the Chemical purity change result in data set [3] (setting [9]) was “no significant chemical purity change”. The “Crystalline form change by XRPD” value in data set [3] (25° C./60% RH, 12 months) was “changed to the crystalline form; also recorded: from Form A to Form A*”. In data set [3] (25° C./60% RH, 24 months), the “Total impurities T24” value is 1.0%. The “Total impurities T6” value in data set [3] (40° C./75% RH, 6 months) was 1.0%.

In data set [7] (5 mpk PO, 5 mg/kg), `O=C1CCc2c(Oc3ccc4c(c3)[C@H]3[C@H](NC(=O)Nc5cc(F)c(F)cc5F)[C@H]3O4)ccnc2N1` [Form B, 1-((1S,1aS,6bS)-5-((7-oxo-5,6,7,8-tetrahydro-1,8-naphthyridin-4-yl)oxy)-1a,6b-dihydro-1H-cyclopropa[b]benzofuran-1-yl)-3-(2,4,5-trifluorophenyl)urea] registered an AUC(0-t) of 13134 ng·h/mL and a T1/2 of 2.47 h. In addition, in data set [7] (PO), the “Cmax and AUC0-inf compared with the amorphous solid dispersions (in words)” value is listed as “lower”; the “Cmax, AUC0-inf and F(%) compared to crystalline Form A (in words)” value is “higher”. Further, the “Time at which solid form is still stable by XRPD (no crystalline peaks)” value in data set [3] (40° C./75% RH) was at least 14 days.

On to `O=C1CCc2c(Oc3ccc4c(c3)[C@H]3[C@H](NC(=O)N[C@@H]5[C@H]6Oc7ccc(Oc8ccnc9c8CCC(=O)N9)cc7[C@@H]56)[C@H]3O4)ccnc2N1` [Impurity-1], for which the “Solubility (in words)” value in data set [1] (water and other common recrystallization solvents) is reported as “very low solubilities”.

As usually defined, the bioavailability is the share of a dose that reaches the circulation, judged against a reference dose that is usually intravenous. The low end stands for poor availability, the high end for good availability. By solubility is commonly meant the concentration that dissolves in the medium under given conditions. In general, AUC(0-t) refers to the area under the concentration-time curve up to a stated or last time point. Read a low AUC(0-t) as low exposure. Usually clearance stands for a measure of how efficiently the substance is removed, as volume per time. One may read the Cmax as the maximum level reached in the sampled fluid or tissue.
